Assay results published in patent US20100216827A1 (Metabolex, Inc., priority 2008, published 2010).
Where two headings read alike, the source gives them in different places.

Target: T1, human GPR120 (Homo sapiens, UniProt Q5NUL3)
T1 construct: host or cells: HEK293 cells coexpressing Gqi5
T1 sequence (Q5NUL3 1-361): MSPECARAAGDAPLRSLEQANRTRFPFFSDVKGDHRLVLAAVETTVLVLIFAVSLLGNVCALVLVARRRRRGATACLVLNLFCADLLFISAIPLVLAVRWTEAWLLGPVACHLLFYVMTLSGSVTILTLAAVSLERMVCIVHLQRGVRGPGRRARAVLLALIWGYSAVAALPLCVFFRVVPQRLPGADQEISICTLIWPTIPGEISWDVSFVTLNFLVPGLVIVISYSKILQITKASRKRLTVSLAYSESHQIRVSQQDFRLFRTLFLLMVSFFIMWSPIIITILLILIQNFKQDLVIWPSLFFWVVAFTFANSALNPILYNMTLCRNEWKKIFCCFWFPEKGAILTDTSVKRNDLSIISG
Assay: Intracellular Ca2+ (FLIPR Calcium 4, Flexstation) assay in human GPR120 stable HEK293 cell line coexpressing Gqi5
Assay type: cell-based
Settings: for % Activity at 5 μM: 5 μM compound compared to the maximal activity of GW9508 at 6.7 μM (100%); for EC50: human GPR120 stably expressing cells, 8 concentrations 0.00001 to 20 μM
Procedure, shortened: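 Calcium 4 dye-loaded HEK293 cells expressing N-terminally Flag-tagged human GPR120 with Gqi5 (HBSS/20 mM HEPES, pH 7.4; 50 min, 37 °C). Fluorescence (485/525 nm) read for 90 s after addition of compound at 8 concentrations, 0.00001–20 μM; EC50 from Max−Min change. % activity at 5 μM versus maximal GW9508 response (6.7 μM).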

[1] = read-out: EC50 between >1 μM and ≦10 μM

Structure (SMILES) | % Activity at 5 μM [%] | EC50 (read-out: EC50 ≦ 1 μM) [µM] | EC50 (read-out: EC50 > 10 μM) [µM] | EC50 [1] [µM]
O=C(O)CC1CCc2cc(OCc3cc(C(F)(F)F)nn3-c3ccc(Cl)cc3)ccc21 (centres unmarked) [Example 119, 2-(5-((1-(4-chlorophenyl)-3-(trifluoromethyl)-1H-pyrazol-5-yl)methoxy)-2,3-dihydro-1H-inden-1-yl)acetic acid] | 92 |  |  | 
Cc1cc(COc2ccc(CCCC(=O)O)cc2)n(-c2ccccc2)n1 [Example 45, 4-(4-((3-methyl-1-phenyl-1H-pyrazol-5-yl)methoxy)phenyl)butanoic acid] | 61 | ≤ 1 |  | 
CCCCc1ccc(-n2nc(C)cc2COc2c(F)cc(CC(C)C(=O)O)cc2F)cc1 (centres unmarked) [Example 82, 3-(4-((1-(4-butylphenyl)-3-methyl-1H-pyrazol-5-yl)methoxy)-3,5-difluorophenyl)-2-methylpropanoic acid] | 68 | ≤ 1 |  | 
O=C(O)C(F)(F)Cc1cc(F)c(OCc2snnc2-c2ccc(Cl)cc2)c(F)c1 [Example 52, 3-(4-((4-(4-chlorophenyl)-1,2,3-thiadiazol-5-yl)methoxy)-3,5-difluorophenyl)-2,2-difluoropropanoic acid] | 96 | ≤ 1 |  | 
Cc1cc(COc2c(F)cc(CC(C)C(=O)O)cc2F)n(-c2ccc(C3CCCCC3)cc2)n1 (centres unmarked) [Example 104, 3-(4-((1-(4-Cyclohexylphenyl)-3-methyl-1H-pyrazol-5-yl)methoxy)-3,5-difluorophenyl)-2-methylpropanoic acid] | 27 |  | > 10 | 
O=C(O)C(F)(F)Cc1cc(F)c(OCc2cc(C(F)(F)F)nn2-c2ccc(Cl)cc2)c(F)c1 [Example 57, 3-(4-((1-(4-chlorophenyl)-3-(trifluoromethyl)-1H-pyrazol-5-yl)methoxy)-3,5-difluorophenyl)-2,2-difluoropropanoic acid] | 85 | ≤ 1 |  | 
CCc1ccc(-n2nc(C)cc2COc2c(F)cc(CCCC(=O)O)cc2F)cc1 [Example 130, 4-(4-((1-(4-ethylphenyl)-3-methyl-1H-pyrazol-5-yl)methoxy)-3,5-difluorophenyl)butanoic acid] | 103 | ≤ 1 |  | 
CCc1ccc(-n2nc(C)cc2COc2c(F)cc(C[C@@H](C)C(=O)O)cc2F)cc1 [Example 98, (R)-3-(4-((1-(4-ethylphenyl)-3-methyl-1H-pyrazol-5-yl)methoxy)-3,5-difluorophenyl)-2-methylpropanoic acid] | 104 | ≤ 1 |  | 
Cc1noc(C)c1COc1c(F)cc(CCC(=O)O)cc1F [Example 23, 3-(4-((3,5-dimethylisoxazol-4-yl)methoxy)-3,5-difluorophenyl)propanoic acid] | 63 |  |  | 1 to 10
O=C(O)CCc1cc(F)c(OCc2cnnn2-c2ccccc2)c(F)c1 [Example 5, 3-(3,5-difluoro-4-((1-phenyl-1H-1,2,3-triazol-5-yl)methoxy)phenyl)propanoic acid] | 64 |  |  | 1 to 10
CCc1cc(OCc2cc(C)nn2-c2ccc(Cl)cc2)ccc1CCC(=O)O [Example 118, 3-(4-((1-(4-chlorophenyl)-3-methyl-1H-pyrazol-5-yl)methoxy)-2-ethylphenyl)propanoic acid] | 103 | ≤ 1 |  | 
Cc1cc(COc2ccc(CC(C)CC(=O)O)cc2)n(-c2ccc(Cl)cc2)n1 (centres unmarked) [Example 72, 4-(4-((1-(4-chlorophenyl)-3-methyl-1H-pyrazol-5-yl)methoxy)phenyl)-3-methylbutanoic acid] | 100 | ≤ 1 |  | 
Cc1cc(COc2c(F)cc(CC(C)C(=O)O)cc2F)n(-c2ccccc2)n1 (centres unmarked) [Example 122, 3-(3,5-difluoro-4-((3-methyl-1-phenyl-1H-pyrazol-5-yl)methoxy)phenyl)-2-methylpropanoic acid] | 91 | ≤ 1 |  | 
Cc1cc(COc2c(F)cc(CC(C)C(=O)O)cc2F)c(-c2ccccc2)o1 (centres unmarked) [Example 116, 3-(3,5-Difluoro-4-((5-methyl-2-phenylfuran-3-yl)methoxy)phenyl)-2-methylpropanoic acid] | 115 | ≤ 1 |  | 
COc1ccc(-n2nc(C)cc2COc2c(F)cc(CCC(=O)O)cc2F)cc1 [Example 49, 3-(3,5-difluoro-4-((1-(4-methoxyphenyl)-3-methyl-1H-pyrazol-5-yl)methoxy)phenyl)propanoic acid] | 71 | ≤ 1 |  | 
Cc1onc(-c2ccccc2)c1C(=O)COc1c(F)cc(CCC(=O)O)cc1F [Example 26, 3-(3,5-difluoro-4-(2-(5-methyl-3-phenylisoxazol-4-yl)-2-oxoethoxy)phenyl)propanoic acid] | 100 | ≤ 1 |  | 
Cc1cc(COc2ccc(CCC(C)C(=O)O)cc2)n(-c2ccc(Cl)cc2)n1 (centres unmarked) [Example 131, 4-(4-((1-(4-chlorophenyl)-3-methyl-1H-pyrazol-5-yl)methoxy)phenyl)-2-methylbutanoic acid] | 68 |  |  | 1 to 10
CCc1ccc(-n2nc(C)cc2COc2c(F)cc(CC(C)C(=O)O)cc2F)cc1 (centres unmarked) [Example 83, 3-(4-((1-(4-ethylphenyl)-3-methyl-1H-pyrazol-5-yl)methoxy)-3,5-difluorophenyl)-2-methylpropanoic acid] | 88 | ≤ 1 |  | 
O=C(O)CCc1cc(F)c(OCc2nccn2Cc2ccccc2)c(F)c1 [Example 11, 3-(4-((1-benzyl-1H-imidazol-2-yl)methoxy)-3,5-difluorophenyl)propanoic acid] | 75 |  |  | 1 to 10
Cc1cc(COc2ccc(CCCC(=O)O)cc2)n(-c2ccc(Cl)cc2)n1 [Example 127, 4-(4-((1-(4-chlorophenyl)-3-methyl-1H-pyrazol-5-yl)methoxy)phenyl)butanoic acid] | 112 | ≤ 1 |  | 
Cc1cc(COc2c(F)cc(CC(C)C(=O)O)cc2F)n(-c2ccc3c(c2)CCC3)n1 (centres unmarked) [Example 81, 3-(4-((1-(2,3-dihydro-1H-inden-5-yl)-3-methyl-1H-pyrazol-5-yl)methoxy)-3,5-difluorophenyl)-2-methylpropanoic acid] | 106 | ≤ 1 |  | 
Cc1cnn(-c2ccc(F)cc2)c1COc1c(F)cc(CCC(=O)O)cc1F [Example 51, 3-(3,5-difluoro-4-((1-(4-fluorophenyl)-4-methyl-1H-pyrazol-5-yl)methoxy)phenyl)propanoic acid] | 81 | ≤ 1 |  | 
C/C(=C\C(=O)O)CCc1ccc(OCc2snnc2-c2ccc(Cl)cc2)cc1 [Example 70, (E)-5-(4-((4-(4-chlorophenyl)-1,2,3-thiadiazol-5-yl)methoxy)phenyl)-3-methylpent-2-enoic acid] | 62 |  |  | 1 to 10
Cn1ncc(COc2c(F)cc(CCC(=O)O)cc2F)c1-c1ccccc1 [Example 13, 3-(3,5-difluoro-4-((1-methyl-5-phenyl-1H-pyrazol-4-yl)methoxy)phenyl)propanoic acid] | 73 |  |  | 1 to 10
Cc1cc(COc2c(F)cc(CC(C)C(=O)O)cc2F)n(-c2ccc(C#N)cc2)n1 (centres unmarked) [Example 80, 3-(4-((1-(4-cyanophenyl)-3-methyl-1H-pyrazol-5-yl)methoxy)-3,5-difluorophenyl)-2-methylpropanoic acid] | 92 | ≤ 1 |  | 
Cc1cc(COc2ccc(CCC(C)CC(=O)O)cc2)n(-c2ccc(Cl)cc2)n1 (centres unmarked) [Example 71, 5-(4-((1-(4-chlorophenyl)-3-methyl-1H-pyrazol-5-yl)methoxy)phenyl)-3-methyl pentanoic acid] | 100 | ≤ 1 |  | 
Cc1cc(COc2ccc3c(c2)CCC(CC(=O)O)C3)n(-c2ccc(Cl)cc2)n1 (centres unmarked) [Example 39, 2-(6-((1-(4-chlorophenyl)-3-methyl-1H-pyrazol-5-yl)methoxy)-1,2,3,4-tetrahydronaphthalen-2-yl)acetic acid] | 100 | ≤ 1 |  | 
Cc1onc(-c2c(Cl)cccc2Cl)c1COc1c(F)cc(CCC(=O)O)cc1F [Example 22, 3-(4-((3-(2,6-dichlorophenyl)-5-methylisoxazol-4-yl)methoxy)-3,5-difluorophenyl)propanoic acid] | 75 |  |  | 1 to 10
O=C(O)CCc1cc(F)c(OCc2sccc2-n2cccc2)c(F)c1 [Example 20, 3-(4-((3-(1H-pyrrol-1-yl)thiophen-2-yl)methoxy)-3,5-difluorophenyl)propanoic acid] | 88 | ≤ 1 |  | 
Cc1cc(COc2c(F)cc(CC(C)C(=O)O)cc2F)n(-c2ccc(C)c(Cl)c2)n1 (centres unmarked) [Example 88, 3-(4-((1-(3-chloro-4-methylphenyl)-3-methyl-1H-pyrazol-5-yl)methoxy)-3,5-difluorophenyl)-2-methylpropanoic acid] | 107 | ≤ 1 |  | 
